The target in one assay is T1, AKT2 (Homo sapiens, UniProt P31751).
T1 construct: expressed in transfected cells; host or cells: HEK293
Kind of assay: Live cell AKT2 target engagement by NanoBRET competitive probe displacement in HEK293 cells. In kind it is binding. The settings on record: 2 h at 37° C., read-out: AKT2 IC50.

Another assay addresses T2, AKT1 WT (Homo sapiens, UniProt P31749).
T2 construct: expressed in transfected cells; host or cells: HEK293
The experiment in a line: Live cell AKT1 WT target engagement by NanoBRET competitive probe displacement in HEK293 cells. The class given is binding. The settings on record: 2 h at 37° C., read-out: AKT1 WT IC50. (BRET reads energy transfer from a luciferase to a nearby fluorophore.)

Where [1] appears, read: NanoBRET competitive probe displacement, live HEK293 cells.
[2] abbreviates: NanoBRET live cell target engagement, HEK293 cells.

Read-outs that look alike come from different tables or passages of the source. Bounds are passed on as bounds.

The IC50 is the midpoint of a concentration-inhibition curve.

T1 sequence (P31751 whole entry): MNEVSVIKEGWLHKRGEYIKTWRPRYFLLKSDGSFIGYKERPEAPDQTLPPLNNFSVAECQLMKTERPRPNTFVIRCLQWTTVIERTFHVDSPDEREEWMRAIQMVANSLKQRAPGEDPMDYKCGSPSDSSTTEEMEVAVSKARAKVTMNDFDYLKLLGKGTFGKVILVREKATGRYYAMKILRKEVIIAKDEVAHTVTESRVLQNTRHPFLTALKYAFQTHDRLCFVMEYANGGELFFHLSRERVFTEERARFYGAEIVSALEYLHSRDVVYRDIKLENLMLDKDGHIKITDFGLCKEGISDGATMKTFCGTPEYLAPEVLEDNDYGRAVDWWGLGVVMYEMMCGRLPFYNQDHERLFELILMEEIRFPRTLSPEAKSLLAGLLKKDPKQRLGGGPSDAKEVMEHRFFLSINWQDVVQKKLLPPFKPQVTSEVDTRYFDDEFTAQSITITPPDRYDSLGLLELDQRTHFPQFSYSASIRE
T2 sequence (P31749 whole entry): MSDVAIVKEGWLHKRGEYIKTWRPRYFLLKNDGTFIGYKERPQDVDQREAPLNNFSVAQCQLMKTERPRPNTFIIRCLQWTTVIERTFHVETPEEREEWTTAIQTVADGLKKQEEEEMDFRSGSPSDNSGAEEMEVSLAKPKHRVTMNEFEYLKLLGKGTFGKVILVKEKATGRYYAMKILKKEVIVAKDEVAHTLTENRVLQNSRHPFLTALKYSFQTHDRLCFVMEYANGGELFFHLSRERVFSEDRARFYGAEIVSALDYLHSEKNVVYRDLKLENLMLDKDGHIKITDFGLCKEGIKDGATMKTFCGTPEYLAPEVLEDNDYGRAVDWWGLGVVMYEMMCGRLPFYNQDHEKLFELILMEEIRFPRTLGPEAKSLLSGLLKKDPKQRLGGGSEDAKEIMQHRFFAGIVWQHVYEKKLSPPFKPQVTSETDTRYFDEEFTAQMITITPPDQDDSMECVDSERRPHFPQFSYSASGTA

Take `Cc1cc(C(=O)N[C@H]2CCc3cc(-n4c(-c5cccnc5N)nc5ccc(-n6cccn6)nc54)ccc32)cc(C(F)(F)F)c1O` [Compound 416]: the half-maximal inhibitory concentration (IC50) on AKT2 (setting [1]) was 34 nM; on AKT1 WT (setting [1]), 1.43 nM.
As for `Cc1cc(C(=O)N[C@H]2CCc3cc(-n4c(-c5cccnc5N)nc5ccc(-n6cccn6)nc54)ccc32)nn1C` [Compound 126], the figures for the 50% inhibitory concentration (IC50) on AKT2 (setting [2]) and at AKT1 WT (setting [2]) were 532 nM and 721 nM, respectively.
The like results for `Cc1cnc(-c2ccc3nc(-c4cccnc4N)n(-c4ccc5c(c4)CC[C@@H]5n4ccnn4)c3n2)s1` [Compound 303] were, in that order, 1720 nM and 45.6 nM.
Take `CN1CCN(c2ccn(-c3ccc4nc(-c5cccnc5N)n(-c5ccc6c(c5)CC[C@@H]6NC5CCN(c6ccn(C)n6)CC5)c4n3)n2)CC1` [Compound 598]: the IC50 was found to be 40.5 nM on AKT2 (setting [1]) and 3.8 nM on AKT1 WT (setting [1]).
For the molecule `CC(C)(O)c1ccn(-c2ccc3nc(-c4cccnc4N)n(-c4ccc5c(c4)CC[C@@H]5NC4CCN(C(=O)C5CC5)CC4)c3n2)n1` [Compound 569], the IC50 came to 808 nM on AKT2 (setting [1]) and 77.4 nM on AKT1 WT (setting [1]).
With `Nc1ncccc1-c1nc2ccc(-n3cccn3)nc2n1-c1ccc2c(c1)CC[C@@H]2NC(=O)c1cccnc1C(F)(F)F` [Compound 110], the results for the half-inhibitory concentration (IC50) at AKT2 (setting [2]) and at AKT1 WT (setting [2]) were 963 nM and 46.2 nM, respectively.
The like results for `Cc1ccc(CN[C@H]2CCc3cc(-n4c(-c5cccnc5N)nc5ccc(-n6cccn6)nc54)ccc32)cn1` [Compound 70] were, in that order, 576 nM and 49.4 nM.
The like results for `Cc1ncccc1OCC1CCc2cc(-n3c(-c4cccnc4N)nc4ccc(-n5cccn5)nc43)ccc21` (single isomer, unassigned) [Compound 253, (*)-3-(3-(1-(((2-methylpyridin-3-yl)oxy)methyl)-2,3-dihydro-1H-inden-5-yl)-5-(1H-pyrazol-1-yl)-3H-imidazo[4,5-b]pyridin-2-yl)pyridin-2-amine] were, in that order, 2120 nM and 65.8 nM.
Consider `Nc1ncccc1-c1nc2ccc(-n3cccn3)nc2n1-c1ccc2c(c1)CC[C@@H]2N1CCC1` [Compound 87, (S)-3-(3-(1-(azetidin-1-yl)-2,3-dihydro-1H-inden-5-yl)-5-(1H-pyrazol-1-yl)-3H-imidazo[4,5-b]pyridin-2-yl)pyridin-2-amine], for which the IC50 was found to be 1900 nM at AKT2 (setting [2]) and 149 nM at AKT1 WT (setting [2]).
Consider `Nc1ncccc1-c1nc2ccc(C#CC3CC3)nc2n1-c1ccc2c(c1)CC[C@@H]2n1cnnc1` [Compound 528], for which the concentration for half-maximal inhibition (IC50) on AKT2 (setting [1]) stood at 320 nM; at AKT1 WT (setting [1]), 17.2 nM.
In the case of `Cc1cnc2ccc(C(=O)N[C@H]3CCc4cc(-n5c(-c6cccnc6N)nc6ccc(-n7cccn7)nc65)ccc43)cn12` [Compound 71], the half-inhibitory concentration (IC50) amounted to 69.7 nM at AKT2 (setting [2]) and 4.63 nM on AKT1 WT (setting [2]).
For the molecule `Nc1ncccc1-c1nc2ccc(-n3cccn3)nc2n1-c1ccc2c(c1)CC[C@@H]2NC1CC2(C1)CN(c1ccccn1)C2` [Compound 448], the IC50 amounted to 1760 nM on AKT2 (setting [1]) and 47.8 nM at AKT1 WT (setting [1]).
For `Nc1ncccc1-c1nc2ccc(C3CC3)nc2n1-c1ccc2c(c1)CC[C@@H]2NC(=O)c1ccc(C(F)F)nc1` [Compound 130], the figures for the IC50 at AKT2 (setting [2]) and at AKT1 WT (setting [2]) were 2290 nM and 46.4 nM, respectively.
The like results for `Nc1ncccc1-c1nc2ccc(-n3cccn3)nc2n1-c1ccc2c(c1)CC[C@@H]2NC(=O)c1ccc(F)c(Cl)c1` [Compound 337] were, in that order, 82.2 nM and 8.65 nM.
Take `CN(C)[C@H]1CCc2cc(-n3c(-c4cccnc4N)nc4ccc(-n5cccn5)nc43)ccc21` [Compound 340]: the IC50 on AKT2 (setting [2]) worked out at 1010 nM; at AKT1 WT (setting [2]) it was 37.7 nM.
The like results for `Cc1cnc(C(=O)N[C@H]2CCc3cc(-n4c(-c5cccnc5N)nc5ccc(-n6cccn6)nc54)ccc32)c(C)n1` [Compound 207] were, in that order, 2520 nM and 151 nM.
Consider `Nc1ncccc1-c1nc2ccc(-n3cccn3)nc2n1-c1ccc2c(c1)CC[C@@H]2NC1CCN(C(=O)[C@@H]2C[C@@H]2F)CC1` [Compound 477], for which the IC50 at AKT2 (setting [1]) turned out to be 4360 nM; on AKT1 WT (setting [1]), 170 nM.
Take `CN1Cc2cc(C(=O)N[C@H]3CCc4cc(-n5c(-c6cccnc6N)nc6ccc(-n7cccn7)nc65)ccc43)cnc2C1` [Compound 112]: the IC50 on AKT2 (setting [2]) was found to be 52.7 nM; at AKT1 WT (setting [2]) it was 9.53 nM.
For `Nc1ncccc1-c1nc2ccc(-n3ccc(C4COC4)n3)nc2n1-c1ccc2c(c1)CC[C@@H]2NC1CCN(C(=O)C2CC2)CC1` [Compound 597], the half-maximal inhibitory concentration (IC50) at AKT2 (setting [1]) is 3780 nM; at AKT1 WT (setting [1]) it was 66.1 nM.
As to `N#Cc1cc(-n2ccc(F)n2)nc2c1nc(-c1cccnc1N)n2-c1ccc2c(c1)CC[C@@H]2NC(=O)c1ccc(C(F)F)nc1` [Compound 329], the values for the half-inhibitory concentration (IC50) on AKT2 (setting [2]) and on AKT1 WT (setting [2]) were 143 nM and 14.7 nM, respectively.
As to `Nc1ncccc1-c1nc2ccc(-n3cccn3)nc2n1-c1ccc2c(c1)CC[C@@H]2NC1CCCc2ccncc21` (some centres unmarked) [Compound 501], the IC50 on AKT2 (setting [1]) stood at 695 nM; at AKT1 WT (setting [1]), 20.5 nM.
For the molecule `Cc1ccc(C(=O)N[C@H]2CCc3cc(-n4c(-c5cccnc5N)nc5ccc(-c6cnn(C)n6)nc54)ccc32)cn1` [Compound 268], the IC50 was 100 nM at AKT2 (setting [2]) and 7.96 nM on AKT1 WT (setting [2]).
The like results for `Cc1coc(-c2ccc3nc(-c4cccnc4N)n(-c4ccc5c(c4)CC[C@@H]5n4ccnn4)c3n2)n1` [Compound 245, (S)-3-(3-(1-(1H-1,2,3-triazol-1-yl)-2,3-dihydro-1H-inden-5-yl)-5-(4-methyloxazol-2-yl)-3H-imidazo[4,5-b]pyridin-2-yl)pyridin-2-amine] were, in that order, 1960 nM and 41.8 nM.
The like results for `C#Cc1ncccc1C(=O)N[C@H]1CCc2cc(-n3c(-c4cccnc4N)nc4ccc(-n5cccn5)nc43)ccc21` [Compound 113] were, in that order, 537 nM and 21 nM.
For `Cn1nc(C(=O)N[C@H]2CCc3cc(-n4c(-c5cccnc5N)nc5ccc(-n6cccn6)nc54)ccc32)cc1F` [Compound 428], the concentration for half-maximal inhibition (IC50) on AKT2 (setting [1]) turned out to be 1730 nM; at AKT1 WT (setting [1]), 58.9 nM.
Consider `COc1cc(C(=O)N[C@H]2CCc3cc(-n4c(-c5cccnc5N)nc5ccc(-n6cccn6)nc54)ccc32)ccc1O` [Compound 260], for which the values for the half-maximal inhibitory concentration (IC50) on AKT2 (setting [2]) and on AKT1 WT (setting [2]) were 164 nM and 7.55 nM, respectively.
For `Cn1ccc(Oc2ccc3nc(-c4cccnc4N)n(-c4ccc5c(c4)CC[C@@H]5NC(=O)c4cnc(C(F)F)s4)c3n2)n1` [Compound 558], the IC50 at AKT2 (setting [1]) is 7510 nM; on AKT1 WT (setting [1]), 71.5 nM.
Consider `Cc1nccnc1C(=O)N[C@H]1CCc2cc(-n3c(-c4cccnc4N)nc4ccc(-n5cccn5)nc43)ccc21` [Compound 118], for which the IC50 on AKT2 (setting [2]) came to 3230 nM; on AKT1 WT (setting [2]), 66.2 nM.
The like results for `Nc1ncccc1-c1nc2ccc(-n3cccn3)nc2n1-c1ccc2c(c1)CC[C@@H]2NC(=O)c1cncc(OC(F)(F)F)c1` [Compound 138] were, in that order, 284 nM and 13.5 nM.
Regarding `Cc1oncc1C(=O)N1CCC(N[C@H]2CCc3cc(-n4c(-c5cccnc5N)nc5ccc(-n6cccn6)nc54)ccc32)CC1` [Compound 489], the values for the concentration for half-maximal inhibition (IC50) on AKT2 (setting [1]) and at AKT1 WT (setting [1]) were 5410 nM and 92.6 nM, respectively.
On to `Cn1cc(Cc2nncn2[C@H]2CCc3cc(-n4c(-c5cccnc5N)nc5ccc(-n6cccn6)nc54)ccc32)cn1` [Compound 228], for which the half-inhibitory concentration (IC50) at AKT2 (setting [2]) is 2030 nM; at AKT1 WT (setting [2]), 586 nM.
The like results for `Cc1ccc(C(C)N[C@H]2CCc3cc(-n4c(-c5cccnc5N)nc5ccc(-n6cccn6)nc54)ccc32)cn1` (some centres unmarked) [Compound 153] were, in that order, 2220 nM and 120 nM.
In the case of `Nc1ncccc1-c1nc2ccc(-n3cccn3)nc2n1-c1ccc2c(c1)CC[C@@H]2NC(=O)c1cccnc1C(F)F` [Compound 79], the values for the IC50 at AKT2 (setting [2]) and at AKT1 WT (setting [2]) were 540 nM and 19.5 nM, respectively.
In the case of `Nc1ncccc1-c1nc2ccc(-n3ncc(C4CC4)n3)nc2n1-c1ccc2c(c1)CC[C@@H]2NC(=O)c1cnc(C(F)F)s1` [Compound 588], the IC50 came out at 764 nM at AKT2 (setting [1]) and 27 nM on AKT1 WT (setting [1]).
`Nc1ncccc1-c1nc2ccc(-n3cccn3)nc2n1-c1ccc2c(c1)CC[C@@H]2n1cc(C2CNC2)nn1` [Compound 250]: the half-inhibitory concentration (IC50) was above 10000 nM on AKT2 (setting [2]) and above 1000 nM on AKT1 WT (setting [2]).
The like results for `Nc1ncccc1-c1nc2ccc(-n3cccn3)nc2n1-c1ccc2c(c1)CC[C@@H]2NC(=O)c1ccc(N2CCOCC2)nc1` [Compound 95] were, in that order, 9.41 nM and 6.98 nM.
For the molecule `Cc1cnc(C(=O)N[C@H]2CCc3cc(-n4c(-c5cccnc5N)nc5ccc(-n6cccn6)nc54)ccc32)cn1` [Compound 185], the IC50 at AKT2 (setting [2]) is 1540 nM; at AKT1 WT (setting [2]), 65.3 nM.
As for `COc1nccc2c1CCC2N[C@H]1CCc2cc(-n3c(-c4cccnc4N)nc4ccc(-n5cccn5)nc43)ccc21` (some centres unmarked) [Compound 508], the half-maximal inhibitory concentration (IC50) on AKT2 (setting [1]) is 627 nM; at AKT1 WT (setting [1]) it was 75.9 nM.
The like results for `COc1cccc(-c2ccc3nc(-c4cccnc4N)n(-c4ccc5c(c4)CC(F)[C@@H]5NC4CCN(C(=O)C5CC5)CC4)c3n2)n1` (some centres unmarked) [Compound 545] were, in that order, 730 nM and 20.8 nM.
Consider `Nc1ncccc1-c1nc2ccc(-n3cccn3)nc2n1-c1ccc2c(c1)CC[C@@H]2n1nnc2ccccc21` [Compound 345], for which the IC50 at AKT2 (setting [2]) came out at 752 nM; on AKT1 WT (setting [2]), 51.6 nM.
The like results for `Nc1ncccc1-c1nc2ccc(-n3cccn3)nc2n1-c1ccc2c(c1)CC[C@@H]2NC(=O)c1ccnc2c1CCC2` [Compound 235] were, in that order, 111 nM and 22.8 nM.
In the case of `COc1cncc(C(=O)N[C@H]2CCc3cc(-n4c(-c5cccnc5N)nc5ccc(-n6cccn6)nc54)ccc32)n1` [Compound 348], the half-inhibitory concentration (IC50) at AKT2 (setting [2]) amounted to 2600 nM; at AKT1 WT (setting [2]), 58.2 nM.
On to `CCc1ncccc1C(=O)N[C@H]1CCc2cc(-n3c(-c4cccnc4N)nc4ccc(-n5cccn5)nc43)ccc21` [Compound 86], for which the IC50 amounted to 427 nM at AKT2 (setting [2]) and 46.8 nM on AKT1 WT (setting [2]).

These data come from patent US12624034B2, “Non-covalent modifiers of AKT1 and uses thereof” (Terremoto Biosciences, Inc., priority 2023, dated 2026).
